Assays:
[1] = target: T1, Pyruvate kinase (Leishmania mexicana) (UniProt Q27686); test: Inhibition of Leishmania mexicana pyruvate kinase assessed as enzyme residual activity at 5 mM
T1 sequence (whole entry): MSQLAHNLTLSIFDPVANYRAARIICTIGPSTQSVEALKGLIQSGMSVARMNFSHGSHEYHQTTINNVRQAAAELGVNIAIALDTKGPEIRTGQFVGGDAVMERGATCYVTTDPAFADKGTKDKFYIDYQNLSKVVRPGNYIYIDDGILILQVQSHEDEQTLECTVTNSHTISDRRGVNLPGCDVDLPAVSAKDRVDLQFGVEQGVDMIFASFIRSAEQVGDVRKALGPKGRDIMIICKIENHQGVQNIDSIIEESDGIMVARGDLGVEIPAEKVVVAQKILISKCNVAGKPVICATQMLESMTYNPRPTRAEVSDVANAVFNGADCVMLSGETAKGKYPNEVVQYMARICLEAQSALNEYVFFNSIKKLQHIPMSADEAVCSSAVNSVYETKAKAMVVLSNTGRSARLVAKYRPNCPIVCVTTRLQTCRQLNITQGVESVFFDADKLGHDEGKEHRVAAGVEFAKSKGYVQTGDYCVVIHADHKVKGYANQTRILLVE

[2] = target: T2, ATP-dependent 6-phosphofructokinase (Trypanosoma brucei) (UniProt O15648); test: Inhibition of Trypanosoma brucei phosphofructokinase assessed as enzyme residual activity at 5 mM
T2 sequence (whole entry): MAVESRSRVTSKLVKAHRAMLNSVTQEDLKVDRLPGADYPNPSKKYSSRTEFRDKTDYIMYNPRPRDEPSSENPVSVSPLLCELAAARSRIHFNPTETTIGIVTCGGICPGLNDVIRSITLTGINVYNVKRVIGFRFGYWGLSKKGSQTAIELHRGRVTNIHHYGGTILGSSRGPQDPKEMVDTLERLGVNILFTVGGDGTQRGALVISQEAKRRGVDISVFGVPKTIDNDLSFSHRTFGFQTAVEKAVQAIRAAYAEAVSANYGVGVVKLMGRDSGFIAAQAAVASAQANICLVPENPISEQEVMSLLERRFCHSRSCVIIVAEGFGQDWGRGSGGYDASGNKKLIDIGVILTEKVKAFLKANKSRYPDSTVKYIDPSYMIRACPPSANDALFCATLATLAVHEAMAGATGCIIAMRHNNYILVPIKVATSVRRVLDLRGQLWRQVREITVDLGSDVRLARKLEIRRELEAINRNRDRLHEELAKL

Pyruvate kinase = target: T3, Pyruvate kinase (Leishmania mexicana, UniProt Q27686); test: Inhibition of Leishmania mexicana pyruvate kinase
T3 sequence (Q27686 whole entry): T1 sequence (whole entry)

[3] = target: T2, ATP-dependent 6-phosphofructokinase (Trypanosoma brucei); test: Inhibition of Trypanosoma brucei phosphofructokinase assessed as enzyme residual activity at 1 mM

Activity [1] | Activity [2] | IC50 (Pyruvate kinase) | Activity [3] | SMILES
12.5% |  |  |  | O=C(Nc1ccc([N+](=O)[O-])cc1)[C@H]1O[C@H](CNC2CCCCCC2)[C@@H](O)[C@@H]1O
73% | 64% |  |  | CC(C)C[C@@H](CO)NC[C@H]1O[C@H](CO)[C@@H](O)[C@@H]1O
81% | 65% |  |  | OC[C@H]1O[C@H](CNCc2ccc(Cl)cc2)[C@@H](O)[C@@H]1O
95% | 73% |  |  | CC(CCc1ccccc1)NC[C@H]1O[C@H](CO)[C@@H](O)[C@@H]1O (stereo partly drawn)
105% | 46% |  |  | OC[C@H]1O[C@H](CNCc2cccc(C(F)(F)F)c2)[C@@H](O)[C@@H]1O
107% | 59% |  |  | OC[C@H]1O[C@H](CNCc2ccc(F)cc2)[C@@H](O)[C@@H]1O
103% | 87% |  |  | Cc1ccc(CNC[C@H]2O[C@H](CO)[C@@H](O)[C@@H]2O)c(C)c1
24.8% |  |  |  | O=C(Nc1ccccc1)[C@H]1O[C@H](CNC2CCCCCC2)[C@@H](O)[C@@H]1O
85% | 47% |  |  | OCCC(NC[C@H]1O[C@H](CO)[C@@H](O)[C@@H]1O)c1ccccc1 (stereo partly drawn)
19.1% |  |  |  | C=CCNC(=O)[C@H]1O[C@H](CNC2CCCCCC2)[C@@H](O)[C@@H]1O
89% | 61% |  |  | Cc1cccc(CNC[C@H]2O[C@H](CO)[C@@H](O)[C@@H]2O)c1
103% | 52% |  |  | OC[C@H]1O[C@H](CN[C@H]2c3ccccc3C[C@H]2O)[C@@H](O)[C@@H]1O
25% |  | 0.9 mM |  | COc1ccc([C@@H](C)NC[C@H]2O[C@H](CO)[C@@H](O)[C@@H]2O)cc1
115% | 44% |  |  | CC(C)CCC(C)NC[C@H]1O[C@H](CO)[C@@H](O)[C@@H]1O (stereo partly drawn)
49% | 33% |  |  | OC[C@H]1O[C@H](CNC2Cc3ccccc3C2)[C@@H](O)[C@@H]1O
125% | 58% |  |  | CC(CCCC(C)(C)O)NC[C@H]1O[C@H](CO)[C@@H](O)[C@@H]1O (stereo partly drawn)
22% |  | 3.5 mM |  | COc1ccc([C@H](C)NC[C@H]2O[C@H](CO)[C@@H](O)[C@@H]2O)cc1
 |  |  | 0.8% | O=C(Nc1ccc([N+](=O)[O-])cc1)[C@H]1O[C@H](CNCc2ccc(Cl)c(Cl)c2)[C@@H](O)[C@@H]1O
36% |  |  |  | C[C@H](NC[C@H]1O[C@H](CO)[C@@H](O)[C@@H]1O)c1ccc(F)cc1
86% | 52% |  |  | CC(C)C[C@H](CO)NC[C@H]1O[C@H](CO)[C@@H](O)[C@@H]1O
80% | 87% |  |  | CC(C)CCCC(C)NC[C@H]1O[C@H](CO)[C@@H](O)[C@@H]1O (stereo partly drawn)
88% | 85% |  |  | OC[C@H]1O[C@H](CNCc2cccc(Cl)c2)[C@@H](O)[C@@H]1O
60% | 57% |  |  | OC[C@H]1O[C@H](CN[C@@H]2c3ccccc3C[C@@H]2O)[C@@H](O)[C@@H]1O
11.5% |  |  |  | O=C(NCc1ccccc1)[C@H]1O[C@H](CNC2CCCCCC2)[C@@H](O)[C@@H]1O
86% | 51% |  |  | CC(C)[C@@H](C)NC[C@H]1O[C@H](CO)[C@@H](O)[C@@H]1O
59% | 47% |  |  | OCC(Cc1ccccc1)NC[C@H]1O[C@H](CO)[C@@H](O)[C@@H]1O (stereo partly drawn)

Activity [1] | Activity [2] | IC50 (Pyruvate kinase) | Activity [3] | SMILES
85% | 59% |  |  | Cc1ccc(CNC[C@H]2O[C@H](CO)[C@@H](O)[C@@H]2O)cc1C
86% | 41% |  |  | OC[C@H]1O[C@H](CNC2CCc3ccccc32)[C@@H](O)[C@@H]1O (stereo partly drawn)
 | 69% |  |  | Cc1ccc(C)c(CNC[C@H]2O[C@H](CO)[C@@H](O)[C@@H]2O)c1
 | 58% |  |  | OC[C@H]1O[C@H](CNCc2ccc(Cl)cc2Cl)[C@@H](O)[C@@H]1O
26% | 70% | 2.5 mM |  | CCCC(C)NC[C@H]1O[C@H](CO)[C@@H](O)[C@@H]1O (stereo partly drawn)
7.6% |  | 0.053 mM |  | O=C(Nc1cccc([N+](=O)[O-])c1)[C@H]1O[C@H](CNC2CCCCCC2)[C@@H](O)[C@@H]1O
90% | 36% |  |  | CCC(CO)NC[C@H]1O[C@H](CO)[C@@H](O)[C@@H]1O (stereo partly drawn)
1.9% |  | 0.026 mM |  | O=C(NC1CCCCCC1)[C@H]1O[C@H](CNC2CCCCCC2)[C@@H](O)[C@@H]1O
34% | 33% | 1.5 mM |  | C[C@@H](NC[C@H]1O[C@H](CO)[C@@H](O)[C@@H]1O)c1ccc2ccccc2c1
100% | 57% |  |  | OC[C@H]1O[C@H](CNCc2cccc(F)c2)[C@@H](O)[C@@H]1O
100% | 68% |  |  | Cc1ccccc1CNC[C@H]1O[C@H](CO)[C@@H](O)[C@@H]1O
28% |  |  |  | CC[C@@H](C)NC[C@H]1O[C@H](CO)[C@@H](O)[C@@H]1O
58% |  |  |  | C[C@H](NC[C@H]1O[C@H](CO)[C@@H](O)[C@@H]1O)c1ccc(Cl)cc1
42% | 63% |  |  | OC[C@H]1O[C@H](CNCc2ccccc2F)[C@@H](O)[C@@H]1O
53% |  |  |  | C[C@@H](NC[C@H]1O[C@H](CO)[C@@H](O)[C@@H]1O)c1ccc(F)cc1
97% | 77% |  |  | OC[C@@H](Cc1ccccc1)NC[C@H]1O[C@H](CO)[C@@H](O)[C@@H]1O
90% | 73% |  |  | Cc1ccc(CNC[C@H]2O[C@H](CO)[C@@H](O)[C@@H]2O)cc1
82% | 35% |  |  | COC[C@H](C)NC[C@H]1O[C@H](CO)[C@@H](O)[C@@H]1O
72% | 83% |  |  | OC[C@H](Cc1ccccc1)NC[C@H]1O[C@H](CO)[C@@H](O)[C@@H]1O
89% | 30% |  |  | OC[C@H]1O[C@H](CNC(c2ccccc2)c2ccccc2)[C@@H](O)[C@@H]1O
30% |  | 1.5 mM |  | C[C@H](NC[C@H]1O[C@H](CO)[C@@H](O)[C@@H]1O)c1ccc2ccccc2c1
 | 75% |  |  | OC[C@H]1O[C@H](CNCc2ccc(-c3ccccc3)cc2)[C@@H](O)[C@@H]1O
71% | 65% |  |  | OC[C@H]1O[C@H](CNCc2ccccc2Cl)[C@@H](O)[C@@H]1O
84% |  |  |  | C[C@@H](NC[C@H]1O[C@H](CO)[C@@H](O)[C@@H]1O)c1ccc(Cl)cc1
26% | 49% | 2.3 mM |  | CC(C)[C@H](C)NC[C@H]1O[C@H](CO)[C@@H](O)[C@@H]1O

SMILES | Activity [1] | Activity [2] | IC50 (Pyruvate kinase) | Activity [3]
OC[C@H]1O[C@H](CNC2CCCC2)[C@@H](O)[C@@H]1O | 52% | 87% | 4.1 mM | 
OC[C@H]1O[C@H](CN[C@H]2C[C@@H]3CC[C@@H]2C3)[C@@H](O)[C@@H]1O | 19% | 40% | 1.5 mM | 
OC[C@H]1O[C@H](CNC2CCC2)[C@@H](O)[C@@H]1O | 43% | 54% | 4.3 mM | 
OC[C@H]1O[C@H](CNC2CCCCCCC2)[C@@H](O)[C@@H]1O | 57% | 64% |  | 
OC[C@H]1O[C@H](CNC2CCCCC2)[C@@H](O)[C@@H]1O | 83% | 69% |  | 
CC(NC[C@H]1O[C@H](CO)[C@@H](O)[C@@H]1O)C(O)c1ccccc1 (stereo partly drawn) | 80% | 64% |  | 
OC[C@H]1O[C@H](CN[C@@H]2C[C@@H]3CC[C@@H]2C3)[C@@H](O)[C@@H]1O | 47% |  |  | 
